How the values were obtained:
MC38 cells [1] = assay: MHC Class I peptide profiling of MC38 cells by immunoprecipitation and mass spectrometry; assay type: cell-based, mouse
Description: MC38 cells were cultured as described above. 10-10 cm (˜1×10^8 cells) plates of MC38 cells were cultured for 72 hours in 0.1% DMSO or 50 nM HSP990. At the time of harvest, plates were washed 1× in PBS, and then cells were lifted using PBS+2 mM EDTA. Cells were then pelleted at 500 g for 5 min and the pellets washed twice more with ice cold PBS. Pellets were then resuspended in 1 mL IP lysis buffer ([…] Tris pH 7.5, 150 mM NaCl, 1% CHAPS, 0.2 mM PMSF, 1× HALT protease/phosphatase inhibitors (Pierce). Lysates were then sonicated with a microtip sonicator for 3×10 s pulses to further disrupt cell membranes, and then centrifuged at 14 k g for 10 min. The supernatant was then quantified at 10 mg total protein lysate was used for the MHC Class IIP.
Peptide MHC isolation was performed using a modified immunoprecipitation and protein filtration protocol, as previously described. […]
Peptides were eluted using a 130 minute gradient with 10-45% buffer B (70% Acetonitrile, 0.2M acetic acid) from 5-100 minutes and 45-55% from 100-120 minutes at a flow rate of 0.2 mL/min for a flow split of approximately 10,000:1. Peptides were analyzed using a Thermo Q Exactive HF-X Hybrid Quadrupole-Orbitrap mass spectrometer. […] Full-scan mass spectrometry spectra [mass/charge ratio (m/z), 350 to 2,000; resolution, 60,000] were detected in the Orbitrap analyzer after accumulation of ions at 3e6 target value. […]

MC38 cells [2] = assay: Immunoblot analysis of MC38 cells; assay type: cell-based, mouse
Description: Protein extraction was performed by washing cells 2× with PBS. A volume of lysis buffer (50 mM Tris pH 7.5, 150 mM NaCl, 1 mM EDTA, 1% Triton-X100, 0.1% SDS, 1× Halt Protease/Phosphatase inhibitor) equal to 1/10 the culture media volume was added directly to the culture dish and incubated for 2-3 min on ice. Lysates were then thoroughly scraped and pipetted into 1.5 mL tubes and incubated for an additional 30 min on ice. Lysates were then cleared by centrifugation at 14,000×g for 15 min and quantified using BCA Assay. Lysates were separated by SDS-PAGE and transferred to 0.2 μm nitrocellulose membranes prior to washing with PBST, blocking with 5% milk in PBST, and incubation with primary antibody overnight at 4° C. All primary antibodies were diluted 1:1000 in 2.5% milk in PBST. Membranes were then washed 4×5 min with PBST and incubated with HRP conjugated secondary antibody at a 1:10,000 dilution in 2.5% milk in PBST, and washed again 4×5 min with PBST. Detection of secondary antibody was performed with SuperSignal West Pico or Femto ECL reagents (Pierce) and digitally imaged on a ChemiDoc (BioRad).
Immunoblotting was performed as described in Example 4. Briefly, protein extraction was performed by washing cells with PBS and then isolating whole cell lysates in lysis buffer (50 mM Tris pH 7.5, 150 mM NaCl, 1 mM EDTA, 1% Triton-X100, 0.1% SDS, 1× Halt Protease/Phosphatase inhibitor) Lysates were then cleared by centrifugation and quantified using BCA Assay. Lysates were separated by SDS-PAGE and transferred to 0.2 μm nitrocellulose membranes prior to washing with PBST, blocking with 5% milk in PBST, and incubation with primary antibody overnight at 4° C. All primary antibodies were diluted 1:1000 in 2.5% milk in PBST. Membranes were then washed and incubated with HRP conjugated secondary antibody. Detection of secondary antibody was performed with SuperSignal West Pico or Femto ECL reagents (Pierce) and digitally imaged on a ChemiDoc (BioRad).

## COc1cccc(-c2cc(F)ccc2[C@H]2Cc3nc(N)nc(C)c3C(=O)N2)n1 [NVP-HSP990]
MC38 cells [1]
  MHC-I peptide repertoire compared to IFNγ: induced a distinct repertoire of MHC-I peptides
MC38 cells [1]; 50 nM HSP990, 72 hours, 557 from vehicle-treated cells
  number of unique MHC Class I peptides identified: 1005
MC38 cells [2]; 72 hours
  Psmb5 protein levels: slightly decreased Psmb5 levels
  Psmb8 protein levels: increased the protein levels of Psmb8
MC38 cells [2]; Hsp90i 60 nM or IFN-γ 10 ng/mL
  expression of downstream markers of IFN-γ signaling (Stat1, Stat3, pStat3, PD-L1): minimal to undetectable effect

Reference: patent US20190365719A1, “COMBINATION TREATMENTS OF HSP90 INHIBITORS FOR ENHANCING TUMOR IMMUNOGENICITY AND METHODS OF USE THEREOF” (Massachusetts Institute of Technology, priority 2018, published 2019)
